The text below walks through data of patent publication US20230322715A1, “BROAD SPECTRUM ANTI-CANCER COMPOUNDS” (The Regents of the University of California, priority 2019, published 2023).

The target in one series is ALKBH5 (Homo sapiens (Human), UniProt Q6P6C2). In words: Fluorescence enzymatic inhibition assay (m6A7-Broccoli RNA / DFHBI-1T) against ALKBH5. The note with it: read-out: Enzymatic IC50 ALKBH5. Format: biochemical. The method, then: (§1) Inhibitors were added in concentrations ranging from 0.008-40 μM; all inhibitors were dissolved in DMSO and added to a final concentration of 0.2% DMSO. […] After incubation at room temperature for 2 hours, the plates were left at 4° C. overnight (16 hours) to allow DFHBI-1T to bind to A7-Broccoli RNA. […] Sigmoidal dose-response curves were fitted in GraphPad Prism 6. All assays were performed in triplicate, with additional repetitions added as necessary.

Another series concerns the target FTO (Homo sapiens (Human), UniProt Q9C0B1). In words: Fluorescence enzymatic inhibition assay (m6A7-Broccoli RNA / DFHBI-1T) against FTO. Format: biochemical. Particulars: read-out: Enzymatic IC50 FTO. On the procedure:
In order to determine their efficacy as FTO inhibitors, the compounds were screened by a fluorescence enzymatic inhibition assay developed previously by the Jaffrey lab.^44 Briefly, a nonfluorescent methylated RNA substrate termed “m6A7-Broccoli” is incubated with FTO in the presence of 2-oxoglutarate (300 μM), (NH4)2Fe(SO4)2·6H2O (300 μM), and L-ascorbate (2 mM) for 2 hours at room temperature in reaction buffer (50 mM NaHEPES, pH 6).
as §1

A short description of series [1]: elogD / log D determination.
Another series has as its target YTHDF2 (Homo sapiens (Human), UniProt Q9Y5A9). The series can be described thus: In vitro FRET assay for binding affinities of YTH inhibitors, YTHDF2. An excerpt: FIG. 8-2 depicts possible design and synthesis of compound libraries. In Vitro FRET assay development could yield a high throughput FRET assay to determine binding affinities for potential YHT inhibitors against YTHDF1, YTHDF2, YTHDF3, or other similar proteins.

The mark [2] stands for this setting: ALK series, permeability data and IC50 tables.
Where [3] appears, read: m6A7-Broccoli fluorescence assay, 0.250 μM ALKBH5.
[4] abbreviates: m6A7-Broccoli fluorescence assay, 0.250 μM FTO, inhibitor up to 40 μM, triplicate.

Read-outs that look alike come from different tables or passages of the source.

Sequence of YTHDF2 (Q9Y5A9 whole entry): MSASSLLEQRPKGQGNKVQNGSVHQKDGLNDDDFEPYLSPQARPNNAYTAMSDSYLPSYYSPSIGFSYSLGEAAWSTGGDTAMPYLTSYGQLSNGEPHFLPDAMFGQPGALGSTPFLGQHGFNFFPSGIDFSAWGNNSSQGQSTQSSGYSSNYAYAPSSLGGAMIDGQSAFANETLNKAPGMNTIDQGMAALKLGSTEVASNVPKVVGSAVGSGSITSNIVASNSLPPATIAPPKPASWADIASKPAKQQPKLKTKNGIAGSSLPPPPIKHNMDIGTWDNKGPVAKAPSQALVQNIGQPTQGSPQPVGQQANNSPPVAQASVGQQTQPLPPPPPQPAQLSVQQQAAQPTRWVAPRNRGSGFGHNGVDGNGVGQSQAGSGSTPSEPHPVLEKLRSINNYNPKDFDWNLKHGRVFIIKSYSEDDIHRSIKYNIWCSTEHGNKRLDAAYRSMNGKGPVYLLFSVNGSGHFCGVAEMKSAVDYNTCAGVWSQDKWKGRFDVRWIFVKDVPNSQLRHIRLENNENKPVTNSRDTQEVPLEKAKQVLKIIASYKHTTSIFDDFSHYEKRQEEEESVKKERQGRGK
Sequence of ALKBH5 (Q6P6C2 whole entry): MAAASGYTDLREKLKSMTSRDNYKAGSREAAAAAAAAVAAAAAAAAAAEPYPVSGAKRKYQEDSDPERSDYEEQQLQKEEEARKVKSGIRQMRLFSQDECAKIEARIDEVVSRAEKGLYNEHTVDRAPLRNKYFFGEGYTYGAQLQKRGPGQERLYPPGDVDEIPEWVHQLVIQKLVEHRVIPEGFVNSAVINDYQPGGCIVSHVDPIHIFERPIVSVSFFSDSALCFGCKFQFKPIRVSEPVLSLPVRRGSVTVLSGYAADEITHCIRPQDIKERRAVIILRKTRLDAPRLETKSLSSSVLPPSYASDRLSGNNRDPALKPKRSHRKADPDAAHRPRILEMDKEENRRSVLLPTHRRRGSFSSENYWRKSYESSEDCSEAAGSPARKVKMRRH
Sequence of FTO (Q9C0B1 whole entry): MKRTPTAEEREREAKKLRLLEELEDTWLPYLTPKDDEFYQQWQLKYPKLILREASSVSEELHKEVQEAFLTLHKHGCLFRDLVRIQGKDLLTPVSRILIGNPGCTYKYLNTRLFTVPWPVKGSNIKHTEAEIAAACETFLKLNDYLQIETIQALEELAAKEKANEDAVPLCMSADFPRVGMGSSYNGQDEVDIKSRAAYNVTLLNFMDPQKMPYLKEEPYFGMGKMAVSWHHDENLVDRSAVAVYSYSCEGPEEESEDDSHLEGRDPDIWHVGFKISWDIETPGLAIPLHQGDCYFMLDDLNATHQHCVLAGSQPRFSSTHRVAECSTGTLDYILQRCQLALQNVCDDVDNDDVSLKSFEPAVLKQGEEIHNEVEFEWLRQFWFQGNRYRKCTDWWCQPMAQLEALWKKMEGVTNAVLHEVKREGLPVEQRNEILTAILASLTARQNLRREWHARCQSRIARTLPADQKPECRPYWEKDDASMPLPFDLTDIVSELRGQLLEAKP

In the case of `COC(=O)C1COC(c2ccc(OC)cc2O)N1` (centres unmarked) [ALK-17], the half-maximal inhibitory concentration (IC50) at ALKBH5 (setting [2]) amounted to 18.2 µM.
For the compound `COC(=O)C1COC(c2cc(C(C)(C)C)ccc2O)N1` (centres unmarked) [ALK-19], the half-inhibitory concentration (IC50) at ALKBH5 (setting [2]) was found to be 24 ± 4.2 µM.
Consider `COc1ncc(-c2ccc3cc(O)ccc3c2)cn1` [FTO-2, 6-(2-methoxypyrimidin-5-yl)naphthalen-2-ol], for which, at ALKBH5 (setting [3]), the IC50 came to 85.5 µM.
Regarding `COc1ncc(-c2ccc3nc(N)sc3c2)cn1` [FTO-4, 6-(2-methoxypyrimidin-5-yl)benzo[d]thiazol-2-amine], the IC50 on FTO (setting [4]) was 3390 ± 2500 nM; on ALKBH5 (setting [3]), 39.4 ± 3.1 µM.
Consider `O=S(=O)(Nc1ccc(Cl)c(Cl)c1)c1ccc(OC(F)(F)F)cc1` [TR-ALKBH5-33], for which the elogD in series [1] (Table 800 compounds) amounted to 1.24.
`O=C(C1CC1)N1CCN(S(=O)(=O)c2ccc(OC(F)(F)F)cc2)CC1` [TR-ALKBH5-41] gave a chromatographic logD in series [1] of 0.79.
Turning to `COc1cc(NC(=O)C2CC(Oc3ccccc3)CN2C(=O)c2ccccc2OC)cc(OC)c1` (centres unmarked) [TR-FTO 2-01], the half-inhibitory concentration (IC50) on FTO turned out to be 610 ± 170 nM.
Still for that read-out and setting: next, `COc1ccccc1C(=O)N1CC(Oc2ccccc2)CC1C(=O)Nc1ccc(C)c(C)c1` (centres unmarked) [TR-FTO 2-02]: 190 ± 30 nM.
The same measure, in the same setting: next, `COc1ccc(CNC(=O)C2CC(Oc3ccccc3)CN2C(=O)c2ccccc2OC)cc1` (centres unmarked) [TR-FTO 2-03]: 1240 ± 650 nM; `COc1ccc(CNC(=O)C2CC(Oc3ccccc3)CN2C(=O)c2ccccc2OC)c(OC)c1` (centres unmarked) [TR-FTO 2-04]: 6670 ± 2310 nM.
The same measure, in the same setting: next, `COc1ccccc1C(=O)N1CC(Oc2ccccc2)CC1C(=O)Nc1ccc(C(C)=O)cc1` (centres unmarked) [TR-FTO 2-05]: 8310 ± 2070 nM.
On to `COc1ccccc1C(=O)N1CC(Oc2ccccc2)CC1C(=O)NCc1ccccn1` (centres unmarked) [TR-FTO 2-06], for which the IC50 on FTO turned out to be 12500 ± 2700 nM.
As to `COc1ccccc1C(=O)N1CC(Oc2ccccc2)CC1C(=O)NCc1cccnc1` (centres unmarked) [TR-FTO 2-07], the IC50 on FTO came out at 170 ± 30 nM.
On to `COc1ccccc1C(=O)N1CC(Oc2ccccc2)CC1C(=O)Nc1ccccc1SC` (centres unmarked) [TR-FTO 2-08], for which the IC50 at FTO worked out at 10300 ± 2290 nM.
On the same count and under the same terms, next, `COc1ccccc1C(=O)N1CC(Oc2ccccc2)CC1C(=O)Nc1cccc(F)c1O` (centres unmarked) [TR-FTO 2-09]: over 40000 nM.
Regarding `Cc1ccc2[nH]cc(CNCC3(N4CCCC4)COC3)c2c1` [TR-FTO-09], the IC50 at ALKBH5 (setting [3]) is over 40 µM.
Still for that read-out and setting: next, `Fc1ccc2[nH]cc(CNCC3(N4CCCC4)COC3)c2c1` [TR-FTO-11]: 6.6 µM; `Fc1ccc2c(CNCC3(N4CCCC4)COC3)c[nH]c2c1` [TR-FTO-12]: 2.3 µM.
Regarding `c1ccc2c(CNCC3(N4CCCC4)COC3)c[nH]c2c1` [TR-FTO-13], the IC50 on FTO (setting [4]) was 1000 nM; on ALKBH5 (setting [3]), over 40 µM.
Turning to `COc1cccc2c(CNCC3(N4CCCC4)COC3)c[nH]c12` [TR-FTO-14], the half-inhibitory concentration (IC50) at ALKBH5 (setting [3]) is over 40 µM. In series [1], this compound showed an elogD of 0.40.
Take `Fc1cccc2c(CNCC3(N4CCCC4)COC3)c[nH]c12` [TR-FTO-16]: the IC50 worked out at 2200 nM on FTO (setting [4]) and 0.87 µM on ALKBH5 (setting [3]).
In the same order, the values of `Fc1cccc2[nH]cc(CNCC3(N4CCCC4)COC3)c12` [TR-FTO-17] are 1300 nM and 2.5 µM.
On to `c1cc2c(cc1CNCC1(N3CCCC3)COC1)OCCO2` [TR-FTO-27], for which, on ALKBH5 (setting [3]), the IC50 turned out to be 5.9 µM. The elogD in series [1] worked out at 0.55.
On the same counts, the results for `Cc1ccc(CNCC2(N3CCCC3)COC2)cc1C` [TR-FTO-30] are 9.9 µM and 0.87.
In the same order, the values of `c1ccc(-c2ccc(CNCC3(N4CCCC4)COC3)o2)cc1` [TR-FTO-35] are 55 µM and 1.14.
Turning to `Cc1ccc2c(CNCC3(N4CCCC4)COC3)c[nH]c2c1` [TR-FTO-42], the IC50 at FTO (setting [4]) was determined as 3000 nM; on ALKBH5 (setting [3]), 13.4 µM.
For the compound `Fc1ccc2c(CNCC3(N4CCC(F)C4)COC3)c[nH]c2c1` (centres unmarked) [TR-FTO-44], the chromatographic logD in series [1] stood at 0.95.
On to `FC1CCN(C2(CNCc3c[nH]c4ccccc34)COC2)C1` (centres unmarked) [TR-FTO-47], for which the IC50 is 2100 nM at FTO (setting [4]) and over 40 µM on ALKBH5 (setting [3]).
For `CN(C)Cc1ccc(NCc2ccc(C(F)(F)F)cc2)nc1` [TR-YTH-20], the inhibitory constant (Ki) was 266 ± 92 pM at YTHDF2 (Ki values for YTH library against YTHDF2, read-out: Ki); 266 ± 92 pM at YTHDF2 (read-out: Ki (pM) YTHDF2); 266 ± 92 pM at YTHDF2 (read-out: Ki YTHDF2).

One may read the IC50 as the concentration at which inhibition is half-maximal. Broadly, the chromatographic logD is a lipophilicity value derived from retention on a column. Higher therefore signals a more lipophilic compound. In general, Ki refers to the dissociation constant of the complex between target and ligand, obtained from inhibition or displacement.
